Experimental data taken from patent US6455506B1, “Lyxofuranosyl benzimidazoles as antiviral agents” (SmithKline Beecham Corporation, priority 1997, dated 2002).
Read-outs that look alike come from different tables or passages of the source.

What was measured:
[1] = system: HSV-1; assay: HSV-1 plaque assay (used for DHPG); type: cell-based, herpes simplex virus 1; conditions: Human alphaherpesvirus 1; plaque assay used for DHPG instead of ELISA (footnote b); read-out: HSV-1 plaque assay 50% Inhibitory Concentration (IC50)
Experimental: Stock HCMV was prepared by infecting HFF cells at a multiplicity of infection (m.o.i.) of <0.01 plaque-forming units (p.f.u.) per cell as detailed previously (see Turk, S. R.; Shipman, C., Jr.; Nassiri, M. R.; Genzingler, G.; Krawczyk, S. H.; Townsend, L. B.; Drach, J. C. Pyrrolo[2,3-d]pyrimidine Nucleosides as Inhibitors of Human Cytomegalovirus, Antimicrob. Agents Chemother. 1987, 31, 544-550). High titer HSV-1 stocks were prepared by infecting KB cells (ATCC) at an m.o.i. of <0.1 also as detailed previously (see Turk, S. R.; Shipman, C., Jr.; Nassiri, M. R.; Genzingler, G.; Krawczyk, S. H.; Townsend, L. B.; Drach, J. C. Pyrrolo[2,3-d]pyrimidine Nucleosides as Inhibitors of Human Cytomegalovirus, Antimicrob. Agents Chemother. 1987, 31, 544-550). Virus titers were determined using monolayer cultures of HFF cells for HCMV and monolayer cultures of BSC-1 cells for HSV-1 as described earlier (see Prichard, M. N.; Turk, S. R.; Coleman, L. A.; Engelhardt, S. L.; Shipman, C., Jr.; Drach, J. C. A Microtiter Virus Yield Reduction Assay for the Evaluation of Antiviral Compounds Against Human Cytomegalovirus and Herpes Simplex Virus. J. Virol. Methods 1990, 28, 101-106). […] Virus titers were calculated according to the following formula: Titer (p.f.u./mL)=number of plaques×5×3^n; where n represents the nth dilution of the virus used to infect the well in which plaques were enumerated.

[2] = system: HCMV; assay: HCMV yield reduction assay (Towne strain) in HFF cells; type: cell-based, Human cytomegalovirus
Experimental: (§1) Stock HCMV was prepared by infecting HFF cells at a multiplicity of infection (m.o.i.) of <0.01 plaque-forming units (p.f.u.) per cell as detailed previously (see Turk, S. R.; Shipman, C., Jr.; Nassiri, M. R.; Genzingler, G.; Krawczyk, S. H.; Townsend, L. B.; Drach, J. C. Pyrrolo[2,3-d]pyrimidine Nucleosides as Inhibitors of Human Cytomegalovirus, Antimicrob. Agents Chemother. 1987, 31, 544-550). High titer HSV-1 stocks were prepared by infecting KB cells (ATCC) at an m.o.i. of <0.1 also as detailed previously (see Turk, S. R.; Shipman, C., Jr.; Nassiri, M. R.; Genzingler, G.; Krawczyk, S. H.; Townsend, L. B.; Drach, J. C. Pyrrolo[2,3-d]pyrimidine Nucleosides as Inhibitors of Human Cytomegalovirus, Antimicrob. Agents Chemother. 1987, 31, 544-550). Virus titers were determined using monolayer cultures of HFF cells for HCMV and monolayer cultures of BSC-1 cells for HSV-1 as described earlier (see Prichard, M. N.; Turk, S. R.; Coleman, L. A.; Engelhardt, S. L.; Shipman, C., Jr.; Drach, J. C. A Microtiter Virus Yield Reduction Assay for the Evaluation of Antiviral Compounds Against Human Cytomegalovirus and Herpes Simplex Virus. J. Virol. Methods 1990, 28, 101-106). Briefly, HFF or BSC-1 cells were planted as described above in 96-well cluster dishes and incubated overnight at 37° C. The next day cultures were inoculated with HCMV or HSV-1 and serially diluted 1:3 across the remaining eleven columns of the 96-well plate. After virus adsorption the inoculum was replaced with fresh medium and cultures were incubated for seven days for HCMV, two or three days for HSV-1. Plaques were enumerated under 20-fold magnification in wells having the dilution which gave 5 to 20 plaques per well. Virus titers were calculated according to the following formula: Titer (p.f.u./mL)=number of plaques×5×3^n; where n represents the nth dilution of the virus used to infect the well in which plaques were enumerated.
HFF cells were planted as described above in 96-well cluster dishes, incubated overnight, medium removed and the cultures were inoculated with HCMV at a m.o.i. of 0.5 to 1 p.f.u. per cell as reported elsewhere (see Prichard, M. N.; Turk, S. R.; Coleman, L. A.; Engelhardt, S. L.; Shipman, C., Jr.; Drach, J. C. A Microtiter Virus Yield Reduction Assay for the Evaluation of Antiviral Compounds Against Human Cytomegalovirus and Herpes Simplex Virus. J. Virol. Methods 1990, 28, 101-106). After virus adsorption, inoculum was replaced with 0.2 mL of fresh medium containing test compounds. The first row of 12 wells was left undisturbed and served as virus controls. Each well in the second row received an additional 0.1 mL of medium with test compound at three times the desired final concentration. The contents of the 12 wells were mixed by repeated pipetting and then serially diluted 1:3 along the remaining wells. In this manner, six compounds could be tested in duplicate on a single plate with concentrations from […]. Plates were incubated at 37° C. for seven days, subjected to one cycle of freezing and thawing; aliquots from each of the eight wells of a given column were transferred to the first column of a fresh 96-well monolayer culture of HFF cells. Contents were mixed and serially diluted 1:3 across the remaining eleven columns of the secondary plate. Each column of the original primary plate was diluted across a separate plate in this manner. Cultures were incubated, plaques were enumerated, and titers calculated as described above.
(§2) Dose-response relationships were constructed by linearly regressing the percent inhibition of parameters derived in the preceding sections against log drug concentrations. Fifty-percent inhibitory concentrations (IC50's) or IC90's were calculated from the regression lines. Samples containing positive controls (acyclovir for HSV-1, ganciclovir for HCMV, and 2-acetylpyridine thiosemicarbazone for cytotoxicity) were used in all assays.

[3] = Inhibition of KB cell growth (crystal violet); type: cell-based; conditions: human, KB cells; KB cell growth, 48 hours, quadruplicate; read-out: Cytotoxicity growth (IC50)
Experimental: (§3) Two different assays were used for routine cytotoxicity testing. (i) Cytotoxicity produced in stationary HFF cells was determined by microscopic inspection of cells not affected by the virus used in plaque assays (see Turk, S. R.; Shipman, C., Jr.; Nassiri, M. R.; Genzingler, G.; Krawczyk, S. H.; Townsend, L. B.; Drach, J. C. Pyrrolo[2,3-]pyrimidine Nucleosides as Inhibitors of Human Cytomegalovirus, Antimicrob. Agents Chemother. 1987, 31, 544-550). (ii) The effect of compounds during two population doublings of KB cells was determined by crystal violet staining and spectrophotometric quantitation of dye eluted from stained cells as described earlier (see Prichard, M. N.; Prichard, L. E., Baguley, W. A.; Nassiri, M. R.; Shipman, C., Jr. Three-Dimensional Analysis of the Synergistic Cytotoxicity of Ganciclovir and Zidovudine. Antiviral Res. 1991, 35, 1060-1065). Briefly, 96-well cluster dishes were planted with KB cells at 3000-5000 cells per well. After overnight incubation at 37° C., test compound was added in quadruplicate at six to eight concentrations. Plates were incubated at 37° C. for 48 hours in a CO2 incubator, rinsed, fixed with 95% ethanol, and stained with 0.1% crystal violet. Acidified ethanol was added and plates read at 570 nm in a spectrophotometer designed to read 96-well ELISA assay plates.
as §2

[4] = Visual cytotoxicity in stationary HFF cells; type: cell-based; conditions: human; HFF cells, scored at time of HCMV plaque enumeration; read-out: Cytotoxicity visual (IC50)
Experimental: as §3, §2

[5] = system: HCMV; assay: HCMV plaque reduction assay (Towne strain) in HFF cells; type: cell-based, Human cytomegalovirus
Experimental: as §1
(§4) HFF cells in 24-well cluster dishes were infected with approximately 100 p.f.u. of HCMV per cm^2 cell sheet using the procedures detailed above. Following virus adsorption, compounds dissolved in growth medium were added to duplicate wells in four to eight selected concentrations. After incubation at 37° C. for 7 to 10 days, cell sheets were fixed, stained with crystal violet and microscopic plaques enumerated as described above.
as §2

[6] = system: HCMV; conditions: background, literature report; cited from earlier work
[7] = system: HSV-1; assay: HSV-1 ELISA in BSC-1 cells; type: cell-based, herpes simplex virus 1; conditions: Human alphaherpesvirus 1, quadruplicate wells, read-out: HSV-1 ELISA 50% Inhibitory Concentration (IC50)
Experimental: An ELISA was employed (see Prichard, M. N.; Shipman, C., Jr. A Three Dimensional Model to Analyze Drug-Drug Interactions. Antiviral Res. 1990, 14, 181-206) to detect HSV-1. Ninety-six-well cluster dishes were planted with 10,000 BSC-1 cells per well in 200 μL per well of MEM(E) plus 10% calf serum. After overnight incubation at 37° C., selected drug concentrations in quadruplicate and HSV-1 at a concentration of 100 p.f.u./well were added. Following a 3-day incubation at 37° C., medium was removed, plates were blocked, rinsed, and horse radish peroxidase conjugated rabbit anti-HSV-1 antibody was added. Following removal of the antibody containing solution, plates were rinsed, and then developed by adding 150 μL per well of a solution of tetramethylbenzidine as substrate. The reaction was stopped with H2SO4 and absorbance was read at 450 and 570 nm. Drug effects were calculated as a percentage of the reduction in absorbance in the presence of each drug concentration compared to absorbance obtained with virus in the absence of drug.
as §2

[8] = system: HCMV Strain AD169; assay: HCMV plaque reduction assay, strain AD169; type: cell-based, Human cytomegalovirus; conditions: Human betaherpesvirus 5, Table 3, read-out: HCMV Strain AD169 plaque 50% Inhibitory Concentration (IC50)
Experimental: as §4, §2

[9] = system: Hepatitis B Virus (HBV); assay: Activity against Hepatitis B Virus (Jansen et al.); type: cell-based; conditions: two separate tests
Experimental: The activity of compounds against Hepatitis B Virus (HBV) was assessed as described in Jansen, R., et al., Antimicrobial Agents and Chemotherapy, Vol. 37, No. 3, pp. 441-447, 1993.

[10] = Human betaherpesvirus 5, Table 2, HFF cells, duplicate, read-out: HCMV yield 90% Inhibitory Concentration (IC90)
[11] = Human betaherpesvirus 5, Table 2, HFF cells, duplicate, read-out: HCMV plaque 50% Inhibitory Concentration (IC50)
[12] = Human betaherpesvirus 5, HFF, Table 3, same data as Table 2, read-out: HCMV Strain Towne yield 90% Inhibitory Concentration (IC90)
[13] = Human betaherpesvirus 5, HFF, Table 3, same data as Table 2, read-out: HCMV Strain Towne plaque 50% Inhibitory Concentration (IC50)

| IC50 [1] | IC90 [2, 10] | IC50 [5, 11] | IC50 [7] | IC90 [2, 12] | IC50 [8] | melting point | IC50 [5, 13] | IC50 ([9]; Hepatitis B virus) | IC50 [9] | Structure (SMILES) | IC50 at 48 h [3] | IC50 [4] | inhibition of HCMV [6] |
| --- | --- | --- | --- | --- | --- | --- | --- | --- | --- | --- | --- | --- | --- |
| 3500 ± 2100 nM | 1600 ± 1200 nM | 7400 ± 6500 nM | – | – | – | – | – | – | – | Nc1nc(O)c2ncn(COC(CO)CO)c2n1 [ganciclovir (DHPG), ganciclovir, reference compound] | > 100000 nM | > 100000 nM | – |
| – | – | – | – | – | – | – | – | – | – | OC[C@H]1O[C@@H](n2c(Br)nc3cc(Cl)c(Cl)cc32)[C@H](O)[C@@H]1O [BDCRB, 2-bromo-5,6-dichloro-1-(β-D-ribofuranosyl)benzimidazole] | – | – | significant inhibitors of HCMV |
| – | 800 nM | 2800 nM | > 100000 nM | 800 nM | 800 nM | 178 to 179 °C | 2800 nM | 8800 nM | 16000 nM | OC[C@@H]1O[C@@H](n2c(Br)nc3cc(Cl)c(Cl)cc32)[C@H](O)[C@@H]1O [Compound 5a, 2-Bromo-5,6dichloro-1-(α-L-lyxofuranosyl)benzimidazole] | > 100000 nM | > 100000 nM | – |
| – | – | – | – | 1400 nM | 1800 nM | – | 2900 nM | – | – | OC[C@H]1O[C@@H](n2c(Cl)nc3cc(Cl)c(Cl)cc32)[C@H](O)[C@@H]1O [TCRB, 2,5,6-trichloro-1-(β-D-ribofuranosyl)benzimidazole, reference compound] | – | – | significant inhibitors of HCMV |
